According to patent US20090208445A1, “Compositions Comprising Eucalyptol And/Or Ocimene And/Or Farnesol For Use As Bumblebee Pheromones” (QUEEN MARY & WESTFIELD COLLEGE, priority 2005, published 2009):

Columns and labels:
Bombus terrestris [1] = test: Behavioural effect of individual compounds on forager recruitment (foragers leaving the nest in search for food); format: in vivo; conditions: 10 μl of 200 mg l-1 in acetone on filter paper in nest box lid every 5 min for 30 min vs preceding 30 min; 7 repeats, Wilcoxon test
Description: All experiments were performed with lab-reared colonies of Bombus terrestris with 30-50 workers. A total of ten colonies were used. Each nest was contained in a wooden box (26 cm·14 cm·10 cm), which was connected to a foraging arena (40 cm·60 cm·30 cm) with a Plexiglas tube of 30 cm length. Nest box and foraging arena had transparent Plexiglas covers, so that the behaviour of the bees could be observed. The arena contained a feeder at certain times of the experiment (see below).
To this end, 10 μl of solution of the individual compounds at 200 mg 1^−1 acetone, were dispensed onto a filter paper placed in a glass tube in the lid of the nest box. This was repeated every 5 minutes for half an hour, and numbers of foragers entering the flight arena in search for food were counted in 5 min intervals during the experimental half hour and in the preceding 30 min (control period). This experiment was repeated 7 times which each individual compound. In addition, 7 control runs were performed with acetone, to exclude the possibility that the solvent itself provoked a behavioural response. Tests were done in random sequence with three bumblebee colonies, with at least 4 h between tests on a single colony. None of the compounds were tested twice on the same day with the same colony.

Bombus terrestris [2] = test: Mobilisation of individually marked foragers of a colony by eucalyptol; format: in vivo
Description: To this end, all foragers were marked that arrived at an ad libitum sucrose feeder in a flight arena connected to a large nest (with >80 workers), over a period of two days. Bees were given individual number plates (Opalith). Then the colony was starved for 1 day, and on the next day, a sucrose feeder was inserted into the arena for one hour. After 30 min, the colony was exposed to eucalyptol as described above. Bees were caught immediately upon arrival, so that they could not provide feedback to the colony.

Structure (SMILES)	Effect on numbers of foragers leaving the nest in search for food (Bombus terrestris [1])	Time for the remaining foragers to arrive after exposure of the colony (Bombus terrestris [2]; 13 remaining of 17 active foragers) [min]	Forager force of the colony activated (Bombus terrestris [2]; colony with 17 active marked foragers, starved 1 day, eucalyptol inserted after 30 min)	Number of foragers arriving at the feeder after exposure of the colony (Bombus terrestris [2]; of 17 active foragers, 4 had arrived in the 30 min before exposure) [foragers]
CC(C)=CCCC(C)=CCCC(C)=CCO [E,E-farnesol, 3,7,11-trimethyl-2,6,10-dodecatrien-1-ol]	non-significant rise in activity	–	–	–
CC12CCC(CC1)C(C)(C)O2 [Eucalyptol, 1,3,3-Trimethyl-2-oxabicyclo[2.2.2.]octane]	strongest response	≤ 15	entire forager force of the colony was activated	13
